From publication PMC11783601, “Analogue-Sensitive Inhibition of Histone Demethylases Uncovers Member-Specific Function in Ribosomal Protein Synthesis” (Journal of the American Chemical Society, 2025)

Assays:
TET3 = target: T1, TET3 (Homo sapiens, UniProt O43151); test: Activity of full-length TET in HEK293T cells, 5hmC dot blot; assay type: cell-based; details: dot-blot with 5hmC antibody
T1 construct: transfected with full-length TET1/3 constructs; expressed in transfected cells; host or cells: HEK293T
Description: (§1) were quantified with Bradford assay (Bio-Rad laboratories) using BSA as a standard and used for
(§2) 14. Expression and activity of full-length TET1 and 3 in HEK293T cells
(§3) To determine the effect of 6A on TET1 and TET3 activity, HEK293T cells were plated in 6 well
(§4) plates and transfected with full-length TET1/3 constructs. Briefly, 2ug of TET1/3 or Empty Vector
(§5) control per well was added to 200µL of JetOptimus buffer and vortexed followed by addition of
(§6) 3µL JetOptimus reagent. The solution was vortexed and left to sit at room temperature for 10
(§7) minutes. The solution was then added to 1.8mL of DMEM and added to the cells in culture plate.
(§8) The cells were left for 4 hours at 37 °C incubator at 5% CO2. The media was aspirated and replaced
(§9) with 2mL of DMEM and 100µM of 6A was added or equivalent volume of DMSO and left in the
(§10) incubator for 24 hours. Cells were then collected and subject to genomic DNA isolation using
(§11) Fisher GeneJET gemoic DNA Purification Kit (Fisher K0721) following manufactures protocol.
(§12) 1000ng of gDNA, as measured via nanodrop, was then subject to Dot Blot experiment. Briefly,
(§13) 20µL of 1000ng gDNA was added to 40µL of 2M NaOH-50mM EDTA solution for 3 minutes at
(§14) room temperature. 140µL of 10mM Tris/1mM EDTA pH 8.0 (TE) buffer and heated at 95 °C for […]

TET1 = target: T2, TET1 (Homo sapiens, UniProt Q8NFU7); test: as above; assay type: cell-based; details: dot-blot with 5hmC antibody
T2 construct: transfected with full-length TET1/3 constructs; expressed in transfected cells; host or cells: HEK293T
Description: as §1, §2, §3, §4, §5, §6, §7, §8, §9, §10, §11, §12, §13, §14

KDM4E-F186A = target: T3, KDM4E-F186A (Homo sapiens, UniProt B2RXH2, F186A); test: MALDI-MS demethylase assay on H3K9me3 peptide; assay type: biochemical
T3 construct: we recombinantly expressed the catalytic domains of 12 wild type dioxygenases, in addition to KDM4A-E; 6xHis (N); host or cells: E. coli BL21 (DE3)
Description: (§15) We next tested the inhibitory potential of 6 against these proteins using H3K9me3 peptide substrate and analyzed it by MALDI-MS. […] We subsequently examined the ability of asKDM4 variants to demethylate full-length histones extracted from mammalian cells. HEK293T cells were cultured in the presence of 10 μM n-octyl IOX1, a broad-spectrum inhibitor of demethylases,[41],[42] to generate a hypermethylated proteome (Figure S19). The extracted histone was incubated with the as variants individually, each with or without 6, and the extent of demethylation was analyzed by Western blot using the H3K9me3-specific antibody. […]
(§16) assay (Biorad) kit with BSA concentrations as a standard. […]
(§17) 8. Demethylase activity of the wild type and mutant KDM4 proteins on peptide substrate To monitor enzymatic activity, a demethylase activity assay was optimized and then observed through MALDI-TOF.7 Each histone demethylase assay sample included either wild type or mutant enzyme (10µM KDM4A, 7.5µM KDM4C, 10µM KDM4D, or 1µM KDM4E), 10 µM peptide, 200 µM 2OG, 50 mM Tris pH 8, […], 0-200µM NOG analogue, and 2 mM L-ascorbic acid with a total assay volume of 10 µL. Fe(II) supplement and L-ascorbic acid […]
(§18) Lastly, the 2OG and peptide were […]
(§19) positive mode and analyzed on Bruker FlexAnalysis software. The percent demethylated peptide […]
(§20) the multiple demethylation events on the peptide. […]

KDM4C-F187A = target: T4, KDM4C-F187A (Homo sapiens, UniProt Q9H3R0, F187A); test: MALDI-MS demethylase assay on H3K9me3 peptide; assay type: biochemical; details: 50 µM (Fig S14)
T4 construct: 6xHis-tagged human KDM4C catalytic domain construct; 6xHis (N); made in house; host or cells: E. coli BL21 [DE3] star
Description: as §15, §16, §17, §18, §19, §20

T4 sequence (Q9H3R0 144-310 F187A limits assumed): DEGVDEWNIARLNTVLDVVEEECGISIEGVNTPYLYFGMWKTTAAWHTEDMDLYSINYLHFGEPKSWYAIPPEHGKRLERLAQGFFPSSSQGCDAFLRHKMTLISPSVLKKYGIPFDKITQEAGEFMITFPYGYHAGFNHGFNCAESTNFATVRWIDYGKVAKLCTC
T2 sequence (Q8NFU7 whole entry): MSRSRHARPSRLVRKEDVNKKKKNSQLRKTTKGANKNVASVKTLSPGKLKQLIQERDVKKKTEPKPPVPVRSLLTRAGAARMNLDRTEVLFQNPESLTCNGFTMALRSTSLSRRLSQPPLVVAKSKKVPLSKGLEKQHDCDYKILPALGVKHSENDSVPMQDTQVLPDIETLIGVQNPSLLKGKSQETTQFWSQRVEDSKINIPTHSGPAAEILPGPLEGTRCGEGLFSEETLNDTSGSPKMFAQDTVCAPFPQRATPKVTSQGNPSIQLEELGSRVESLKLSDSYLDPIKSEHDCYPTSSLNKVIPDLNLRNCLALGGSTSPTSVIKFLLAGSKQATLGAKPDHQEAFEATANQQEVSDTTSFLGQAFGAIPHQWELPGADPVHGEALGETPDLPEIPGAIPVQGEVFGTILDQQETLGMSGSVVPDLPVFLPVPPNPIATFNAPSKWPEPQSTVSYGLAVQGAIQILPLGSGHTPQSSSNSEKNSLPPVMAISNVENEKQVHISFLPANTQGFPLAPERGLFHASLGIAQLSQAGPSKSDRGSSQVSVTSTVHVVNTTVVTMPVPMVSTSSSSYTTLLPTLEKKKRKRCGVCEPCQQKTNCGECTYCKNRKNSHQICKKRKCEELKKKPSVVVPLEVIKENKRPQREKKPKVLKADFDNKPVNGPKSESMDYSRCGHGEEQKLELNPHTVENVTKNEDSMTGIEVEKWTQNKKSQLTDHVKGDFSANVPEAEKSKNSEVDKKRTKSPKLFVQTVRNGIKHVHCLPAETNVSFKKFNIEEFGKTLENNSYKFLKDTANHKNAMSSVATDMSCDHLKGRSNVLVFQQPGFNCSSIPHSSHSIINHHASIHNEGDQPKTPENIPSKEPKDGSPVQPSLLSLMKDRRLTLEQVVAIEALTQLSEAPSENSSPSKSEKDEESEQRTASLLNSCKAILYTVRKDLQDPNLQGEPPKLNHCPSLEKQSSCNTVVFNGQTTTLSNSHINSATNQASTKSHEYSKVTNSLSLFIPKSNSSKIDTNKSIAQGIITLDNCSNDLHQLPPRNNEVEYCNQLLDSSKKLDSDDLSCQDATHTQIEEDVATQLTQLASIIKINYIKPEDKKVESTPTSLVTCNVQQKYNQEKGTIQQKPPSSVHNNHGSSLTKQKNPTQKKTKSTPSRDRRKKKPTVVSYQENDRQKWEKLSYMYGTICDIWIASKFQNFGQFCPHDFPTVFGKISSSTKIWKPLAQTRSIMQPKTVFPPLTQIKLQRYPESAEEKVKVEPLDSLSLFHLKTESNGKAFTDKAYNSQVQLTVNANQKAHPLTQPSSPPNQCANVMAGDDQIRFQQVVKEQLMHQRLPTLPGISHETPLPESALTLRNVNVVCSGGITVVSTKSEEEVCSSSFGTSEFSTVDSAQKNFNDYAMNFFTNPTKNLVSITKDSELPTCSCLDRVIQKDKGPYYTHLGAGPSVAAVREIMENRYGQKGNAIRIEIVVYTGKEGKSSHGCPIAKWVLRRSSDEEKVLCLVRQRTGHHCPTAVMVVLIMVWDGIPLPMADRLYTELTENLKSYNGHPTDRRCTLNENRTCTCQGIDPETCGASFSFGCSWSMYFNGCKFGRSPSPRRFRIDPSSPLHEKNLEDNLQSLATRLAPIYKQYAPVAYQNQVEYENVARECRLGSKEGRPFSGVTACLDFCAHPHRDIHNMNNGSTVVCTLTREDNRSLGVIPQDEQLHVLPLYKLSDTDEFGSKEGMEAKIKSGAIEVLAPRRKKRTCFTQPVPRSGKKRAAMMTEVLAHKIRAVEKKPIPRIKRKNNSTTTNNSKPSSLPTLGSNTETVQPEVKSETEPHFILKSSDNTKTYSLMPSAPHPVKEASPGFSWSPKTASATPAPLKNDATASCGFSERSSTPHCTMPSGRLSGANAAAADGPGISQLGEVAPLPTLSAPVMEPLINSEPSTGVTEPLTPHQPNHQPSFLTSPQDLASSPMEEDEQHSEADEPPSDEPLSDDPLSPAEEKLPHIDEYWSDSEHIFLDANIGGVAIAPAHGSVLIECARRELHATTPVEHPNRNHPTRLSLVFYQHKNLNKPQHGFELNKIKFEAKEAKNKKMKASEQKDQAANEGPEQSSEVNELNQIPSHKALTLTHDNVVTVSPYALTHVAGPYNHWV
T3 sequence (B2RXH2 143-309 F186A limits assumed): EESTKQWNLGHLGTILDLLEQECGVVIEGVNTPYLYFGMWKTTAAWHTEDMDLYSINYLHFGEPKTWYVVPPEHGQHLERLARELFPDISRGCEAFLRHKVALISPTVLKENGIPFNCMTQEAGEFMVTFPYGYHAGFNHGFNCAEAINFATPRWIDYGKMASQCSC
T1 sequence (O43151 whole entry): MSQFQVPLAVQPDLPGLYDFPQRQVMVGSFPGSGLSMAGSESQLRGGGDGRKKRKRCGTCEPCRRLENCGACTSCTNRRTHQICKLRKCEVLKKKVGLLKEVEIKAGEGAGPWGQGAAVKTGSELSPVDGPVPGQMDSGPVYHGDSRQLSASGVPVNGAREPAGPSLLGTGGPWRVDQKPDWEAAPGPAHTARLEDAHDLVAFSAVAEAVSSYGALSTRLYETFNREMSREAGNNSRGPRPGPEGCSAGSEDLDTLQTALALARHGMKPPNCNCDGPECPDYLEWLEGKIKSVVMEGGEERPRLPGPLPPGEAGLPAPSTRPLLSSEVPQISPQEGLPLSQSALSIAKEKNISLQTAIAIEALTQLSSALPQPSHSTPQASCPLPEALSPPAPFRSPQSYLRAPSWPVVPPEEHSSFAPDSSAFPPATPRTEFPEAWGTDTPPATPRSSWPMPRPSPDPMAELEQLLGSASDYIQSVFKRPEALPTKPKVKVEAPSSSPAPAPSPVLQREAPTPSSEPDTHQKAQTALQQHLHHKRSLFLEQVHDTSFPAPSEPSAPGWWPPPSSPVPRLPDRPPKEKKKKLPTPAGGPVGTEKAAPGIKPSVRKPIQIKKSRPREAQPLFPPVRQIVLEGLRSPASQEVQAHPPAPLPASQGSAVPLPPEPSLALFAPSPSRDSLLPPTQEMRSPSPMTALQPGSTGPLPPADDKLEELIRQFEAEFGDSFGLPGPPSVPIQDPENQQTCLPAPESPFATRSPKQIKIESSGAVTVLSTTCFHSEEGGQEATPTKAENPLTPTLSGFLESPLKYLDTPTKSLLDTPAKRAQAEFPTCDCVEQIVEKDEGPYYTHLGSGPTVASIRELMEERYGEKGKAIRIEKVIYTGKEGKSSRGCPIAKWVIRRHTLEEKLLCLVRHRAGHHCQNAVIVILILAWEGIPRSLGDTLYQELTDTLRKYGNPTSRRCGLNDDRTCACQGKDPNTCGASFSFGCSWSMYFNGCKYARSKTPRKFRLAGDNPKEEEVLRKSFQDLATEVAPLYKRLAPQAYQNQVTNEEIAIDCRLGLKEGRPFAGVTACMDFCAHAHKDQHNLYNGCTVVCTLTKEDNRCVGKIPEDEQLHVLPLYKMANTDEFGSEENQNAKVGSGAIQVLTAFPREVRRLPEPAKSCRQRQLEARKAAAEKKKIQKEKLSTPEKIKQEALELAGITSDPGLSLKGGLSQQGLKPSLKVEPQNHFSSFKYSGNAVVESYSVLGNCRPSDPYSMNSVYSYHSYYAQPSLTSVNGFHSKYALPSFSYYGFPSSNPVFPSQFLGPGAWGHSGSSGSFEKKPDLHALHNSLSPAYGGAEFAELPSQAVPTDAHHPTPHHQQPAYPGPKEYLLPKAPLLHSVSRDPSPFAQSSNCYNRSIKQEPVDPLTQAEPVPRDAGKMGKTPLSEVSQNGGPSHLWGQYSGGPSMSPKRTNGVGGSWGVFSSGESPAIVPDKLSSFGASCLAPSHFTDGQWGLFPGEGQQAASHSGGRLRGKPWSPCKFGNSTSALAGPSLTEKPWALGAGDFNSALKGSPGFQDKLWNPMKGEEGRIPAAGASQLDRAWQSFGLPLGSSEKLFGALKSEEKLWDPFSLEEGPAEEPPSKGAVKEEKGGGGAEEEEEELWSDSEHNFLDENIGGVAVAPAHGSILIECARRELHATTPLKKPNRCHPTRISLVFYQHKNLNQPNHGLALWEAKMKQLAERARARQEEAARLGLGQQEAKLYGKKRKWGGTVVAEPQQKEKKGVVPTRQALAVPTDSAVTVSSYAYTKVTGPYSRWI

SMILES	inhibition of TET3 5hmC formation (TET3)	inhibition of TET1 5hmC formation (TET1)	inhibition of KDM4E-F186A (KDM4E-F186A)	inhibition of KDM4C-F187A (KDM4C-F187A)	inhibition of KDM4C-F187A (KDM4C-F187A; listed as NOG 6)
CCCCCCCCOC(=O)C(=O)NC(CC(C)C)C(=O)O [6A, L-Leu octyl-ester NOG]	No inhibition	No inhibition	–	–	–
CC(C)CC(NC(=O)C(=O)O)C(=O)O (centres unmarked) [compound 6, N-oxalyl leucine]	–	–	significantly inhibited	significantly inhibited	inhibits the mutant completely
